Measurements: patent US10106684B2, “Method for making Schiff base” (KING FAHD UNIVERSITY OF PETROLEUM AND MINERALS, priority 2016, dated 2018)

Assay: Fluorescence titration of compound 1 with Cu^2+ (Stern-Volmer plot, detection limit)
Assay type: binding
Procedure: All of the absorption and emission studies were carried out in mixed aqueous solutions of water and methanol (4:1) containing HEPES buffer (10 mM, pH 7.4) at a concentration of 20 μM and 0.2 μM respectively. Emission studies were carried out by addition of 10 equiv of various biologically and non-biologically relevant metal cations to an aqueous-MeOH (4:1) solution of compound 1 at a concentration level of 0.2 μM and their complexation abilities were studies by fluorescence. […] Importantly, none of the other cations induced any such distinct emission shift or quenching (FIG. 7). […] Fluorescence titration of compound 1 with Cu^2+ was carried out in aqueous MeOH (4:1) solution at a concentration level of 0.2 μM. The addition of Cu^2+ to the solution of compound 1 caused a complete quenching of the fluorescent emission and the peak at 525 nm (Φ=0.32) is “switched off” when excited at 502 nm (FIG. 9). […]
Thus, it can be assumed that the quenching of the fluorescence of compound 1 by Cu^2+ ion is a static quenching mode due to the formation of a non-fluorescent complex in the ground state. […] From the Stern-Volmer linear plot (FIG. 14) the binding constant of compound 1 with Cu^2+ was calculated to be 1.0×10^7 L·mol^−1 (error limits≤10%).

## Cn1ccnc1/C=N/N1C(=O)c2ccccc2C12c1ccc(O)cc1Oc1cc(O)ccc12 [compound 1, Fluorescein-N-methylimidazole conjugate]
0.2 μM compound, excitation 502 nm
  effect of Cu^2+ on fluorescence emission at 525 nm: completely quenched
H2O:MeOH (4:1), HEPES 10 mM, pH 7.4, λex=502 nm, error limits≤10%
  binding constant with Cu^2+ from Stern-Volmer linear plot: 1e+07 L/mol
